Assay results from patent US20230086985A1, “POLYMERIC COMPOUNDS INCLUDING AN ACCEPTOR DYE AND DONOR LUMINOPHORE” (North Carolina State University, priority 2019, published 2023).
Read-outs that look alike come from different tables or passages of the source.

Key:
[1] = Absorption and emission spectra of dye-loaded copolymers F1-F3 and dyes D1-D3; type: physicochemical
Excerpt: Measurements of Absorption and Emission Spectra. The target dye-loaded copolymers F1-F3 were then subject to investigations of their spectroscopic properties in both organic solvents and aqueous solution. […] Attaching to the 120-kDa amphiphilic copolymer drastically enhances the water solubility of BODIPY D1 and chlorin D2 without strong perturbation on the spectroscopic properties. Emission band for F1 and F2 in water remains the same as the ones measured in organic solutions, showing minimal dye-dye interaction is involved in aqueous solution of F1 and F2 at μM concentration. […] This negative result may be because of the inappropriate size of the copolymer backbone. Polymer larger in size may be required to encapsulate large hydrophobic chromophores like the phthalocyanine D3.
General Methods. All chemicals obtained commercially were used as received unless otherwise noted. Reagent-grade solvents (CH2Cl2, THF, methanol) and HPLC-grade water were used as received. NMR data was measured in a solution of CDCl3 unless otherwise noted. Noncommercial compounds 1, 2, and 4 were prepared following literature procedures. Analytical SEC experiments were performed with PLgel 10000 Å SEC column, eluted with ACS grade THF (stabilized with 400 ppm of BHT) at 35° C. with a flow rate at 1 mL/min. Samples were detected with Agilent 1260 infinity refractive index detector. Absorption spectra were measured on Agilent 8453 and Shimadzu UV1800 instruments using dilute (μmolar) solutions of the compound in UV transparent (e.g., quartz) cuvettes versus a solvent blank at room temperature.

[2] = Fluorescence quantum yield of F1-F3 and D1-D3; type: physicochemical
Excerpt: Fluorescence Quantum Yields. […] […] These comparisons indicate the absence of dye-dye quenching resulting from the aggregation for F1 and F2 in μM aqueous solutions. […] Also, a smaller phthalocyanine skeleton (e.g. with methyl instead of heptyl as peripheral groups) may be encapsulated with the current length of copolymer successfully.

[3] = aqueous solution, cited from earlier work
[4] = aqueous solution, Hg(II); cited from earlier work
[5] = solvent CH2Cl2, room temperature
[6] = solvent toluene, room temperature

FWHM [1, 5] [cm⁻¹]	emission maximum wavelength (λem max) [1, 5] [nm]	λabs^max [1, 5] [nm]	Φf [2, 5]	Structure (SMILES)	other results
1628	557	543	0.065	Cc1cc(C)c(C2=C3C=CC=[N+]3[B-](F)(F)n3cc(C#CCCCCC(=O)NN)cc32)c(C)c1 [Compound D1, 2-[6-(N-Aminocarbamoyl)hex-1-yn-1-yl]-8-mesityl-4,4-difluoro-4-bora-3a,4a-diaza-s-indacene]	–
342	641	640	0.19	Cc1cc(C)c(-c2c3nc(c(-c4ccc(C(=O)NN)cc4)c4ccc(cc5nc(cc6ccc2[nH]6)CC5(C)C)[nH]4)C=C3)c(C)c1 [Compound D2, 5-[4-(N-Aminocarbamoyl)phenyl]-10-Mesityl-18,18-dimethylchlorin]	–
–	–	–	–	CCCCCCCc1cc2c(cc1CCCCCCC)-c1nc-2nc2[nH]c(nc3nc(nc4[nH]c(n1)c1cc(CCCCCCC)c(CCCCCCC)cc41)-c1cc(C#Cc4ccc(CC(=O)NN)cc4)ccc1-3)c1cc(CCCCCCC)c(CCCCCCC)cc21 [Compound D3, 2-[4-(N-Aminocarbamoyl)methylphenylethynyl]-9,10,16,17,23,24-hexaheptylphthalocyanine]	FWHM [1, 6]: 1113 cm⁻¹; emission maximum wavelength (λem max) [1, 6]: 707 nm; λabs^max [1, 6]: 702 nm; Φf [2, 6]: 0.68
–	–	–	–	CCN(CC)c1ccc2c(c1)Oc1cc(N(CC)CC)ccc1C21c2ccccc2C(=O)N1N [Rhodamine-B hydrazide]	change in absorption or fluorescence spectra ([3]; Cu(II)): significant change; Cu(II) concentration at which selective detection was highly sensitive and quantitative [3]: 10^−7 M; change in absorption or fluorescence spectra [4]: significant change
